Measured values taken from ChEMBL document CHEMBL1153484, “Design, synthesis and evaluation of N-[(3S)-pyrrolidin-3-yl]benzamides as selective noradrenaline reuptake inhibitors: CNS penetration in a more polar template” (Bioorg Med Chem Lett, 2009).
The source made the active and inactive calls. The rule behind the calls is not given here.

Key:
[1] = target: Sodium channel protein type 5 subunit alpha (Homo sapiens, UniProt Q14524); test: Blockade of Nav1.5 sodium channel
[2] = target: T1, Muscarinic acetylcholine receptor M4 (Homo sapiens, UniProt P08173); test: Binding affinity to human muscarinic M4 receptor
T1 sequence (P08173 whole entry): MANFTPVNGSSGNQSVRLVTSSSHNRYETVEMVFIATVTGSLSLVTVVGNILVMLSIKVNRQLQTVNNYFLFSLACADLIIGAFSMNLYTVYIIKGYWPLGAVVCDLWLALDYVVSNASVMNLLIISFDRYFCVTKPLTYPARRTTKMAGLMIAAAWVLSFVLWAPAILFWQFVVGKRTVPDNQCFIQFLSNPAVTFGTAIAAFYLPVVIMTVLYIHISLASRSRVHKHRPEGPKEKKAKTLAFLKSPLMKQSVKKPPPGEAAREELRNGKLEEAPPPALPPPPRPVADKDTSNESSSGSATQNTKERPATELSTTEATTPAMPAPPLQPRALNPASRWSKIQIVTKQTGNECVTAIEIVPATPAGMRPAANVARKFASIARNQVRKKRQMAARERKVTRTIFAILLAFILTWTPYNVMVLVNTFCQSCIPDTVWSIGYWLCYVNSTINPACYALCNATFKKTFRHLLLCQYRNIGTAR

Rattus norvegicus [3] = test: Effect on 5-hydroxyindoleacetic acid level in rat prefrontal cortex up to 3.2 mg/kg, sc by microdialysis method; format: functional, organism-based; set-up: dose 3.2 mg/kg
[4] = target: Voltage-gated inwardly rectifying potassium channel KCNH2 (Homo sapiens, UniProt Q12809); test: Displacement of [3H]dofetilide from human ERG
[5] = target: Sodium-dependent serotonin transporter (Homo sapiens, UniProt P31645); test: Displacement of [3H]citalopram from human recombinant SERT expressed in HEK293 cells by scintillation proximity assay; format: cell-based
[6] = Dissociation constant, pKa of the compound; format: physicochemical
Cytochrome P450 3A4 [7] = target: T2, Cytochrome P450 3A4 (Homo sapiens, UniProt P08684); test: Inhibition of CYP3A4 using felodipine as substrate; format: ADME
Transporter = Transporter (Rattus norvegicus, UniProt Q63380); test: Binding affinity to rat NET expressed in HEK293 cells; format: cell-based
[8] = Apparent permeability from apical to basolateral side of human Caco-2 cells at 10 uM; format: ADME, cell-based
[9] = target: T3, Muscarinic acetylcholine receptor M4 (Homo sapiens) (UniProt P08173); test: Binding affinity to human muscarinic M4 receptor at 10 uM
T3 sequence (whole entry): T1 sequence (P08173 whole entry)

[10] = target: Sodium-dependent noradrenaline transporter (Homo sapiens, UniProt P23975); test: Displacement of [3H]nisoxetine from human recombinant NET expressed in HEK293 cells by scintillation proximity assay; format: cell-based
MDR1 (P-gp) [11] = test: Apparent permeability from basolateral to apical side of MDCK cells expressing MDR1 at 10 uM; format: ADME, cell-based, Canis lupus familiaris; conditions: dog
[12] = target: Sodium-dependent dopamine transporter (Homo sapiens, UniProt Q01959); test: Displacement of radioligand from human recombinant DAT expressed in HEK293 cells by scintillation proximity assay; format: cell-based
MDR1 (P-gp) [13] = test: Efflux ratio of permeability from […] in MDCK cells expressing MDR1 at 10 uM; format: ADME, cell-based, Canis lupus familiaris; conditions: dog
Cytochrome P450 3A4 [14] = target: T2, Cytochrome P450 3A4; test: Inhibition of CYP3A4 using testosterone as substrate; format: ADME
MDR1 (P-gp) [15] = test: Apparent permeability from apical to basolateral side of MDCK cells expressing MDR1 at 10 uM; format: ADME, cell-based, Canis lupus familiaris; conditions: dog
[16] = Binding affinity to sodium channel site 2
hERG (KCNH2) = hERG (KCNH2) (Homo sapiens, UniProt Q12809); test: Displacement of [3H]dofetilide from human ERG at 10 uM; conditions: probe [3H]dofetilide
Rattus norvegicus [17] = test: Ex vivo NET occupancy in rat neocortical tissue at 3 mg/kg, sc after 1 hr by [3H]nisoxetine binding assay; format: functional; conditions: route subcutaneous
Rattus norvegicus [18] = test: Effect on dihydroxyphenylacetic acid level in rat prefrontal cortex up to 3.2 mg/kg, sc by microdialysis method; format: functional, organism-based; set-up: dose 3.2 mg/kg
[19] = Apparent permeability from basolateral to apical side of human Caco-2 cells at 10 uM; format: ADME, cell-based
Cytochrome P450 1A2 = target: T4, Cytochrome P450 1A2 (Homo sapiens, UniProt P05177); test: Inhibition of CYP1A2; format: ADME
T4 sequence (P05177 whole entry): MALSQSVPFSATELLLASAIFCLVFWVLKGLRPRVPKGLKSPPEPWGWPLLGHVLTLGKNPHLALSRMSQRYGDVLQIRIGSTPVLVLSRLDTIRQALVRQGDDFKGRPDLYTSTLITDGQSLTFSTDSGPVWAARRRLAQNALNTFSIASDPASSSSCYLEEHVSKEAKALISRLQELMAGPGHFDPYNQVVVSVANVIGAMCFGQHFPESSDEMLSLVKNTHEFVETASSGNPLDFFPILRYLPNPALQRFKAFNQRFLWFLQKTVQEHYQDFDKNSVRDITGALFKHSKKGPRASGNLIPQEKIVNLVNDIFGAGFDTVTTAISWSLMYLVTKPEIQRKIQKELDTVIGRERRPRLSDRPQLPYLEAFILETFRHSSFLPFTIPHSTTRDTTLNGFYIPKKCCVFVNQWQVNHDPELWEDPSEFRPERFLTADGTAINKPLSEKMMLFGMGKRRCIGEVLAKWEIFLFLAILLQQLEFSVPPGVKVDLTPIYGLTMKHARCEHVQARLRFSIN

Rattus norvegicus [20] = test: Increase in noradrenaline level in interstitial fluid of rat prefrontal cortex at 0.3 to 3.2 mg/kg, sc by microdialysis method relative to baseline level; format: functional; conditions: dose mg/kg 0.3-3.2; route subcutaneous
Cytochrome P450 2C19 = Cytochrome P450 2C19 (Homo sapiens, UniProt P33261); test: Inhibition of CYP2C19; format: ADME
[21] = Intrinsic clearance in human liver microsomes; format: ADME, Microsome
[22] = target: T5, Muscarinic acetylcholine receptor M5 (Homo sapiens, UniProt P08912); test: Binding affinity to human muscarinic M5 receptor
T5 sequence (P08912 whole entry): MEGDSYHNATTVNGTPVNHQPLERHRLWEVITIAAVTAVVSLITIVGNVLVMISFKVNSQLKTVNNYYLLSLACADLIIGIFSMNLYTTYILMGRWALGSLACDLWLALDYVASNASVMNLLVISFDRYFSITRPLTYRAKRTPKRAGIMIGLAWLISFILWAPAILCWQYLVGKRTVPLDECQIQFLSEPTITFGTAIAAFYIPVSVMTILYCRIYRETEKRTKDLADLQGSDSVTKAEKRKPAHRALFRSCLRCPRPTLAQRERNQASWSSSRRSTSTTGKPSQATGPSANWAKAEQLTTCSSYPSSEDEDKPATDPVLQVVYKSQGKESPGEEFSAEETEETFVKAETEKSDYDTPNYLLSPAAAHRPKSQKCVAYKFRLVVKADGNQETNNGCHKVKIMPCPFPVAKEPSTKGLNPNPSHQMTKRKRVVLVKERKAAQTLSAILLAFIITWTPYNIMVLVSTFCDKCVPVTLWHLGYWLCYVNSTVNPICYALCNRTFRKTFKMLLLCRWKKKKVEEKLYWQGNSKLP

[23] = target: T6, Muscarinic acetylcholine receptor M5 (Homo sapiens) (UniProt P08912); test: Binding affinity to human muscarinic M5 receptor at 10 uM
T6 sequence (whole entry): T5 sequence (P08912 whole entry)

Cytochrome P450 3A4 [24] = target: T2, Cytochrome P450 3A4; test: Inhibition of CYP3A4 using midazolam as substrate; format: ADME
Cytochrome P450 2C9 = Cytochrome P450 2C9 (Homo sapiens, UniProt P11712); test: Inhibition of CYP2C9; format: ADME
Cytochrome P450 2D6 = Cytochrome P450 2D6 (Homo sapiens, UniProt P10635); test: Inhibition of CYP2D6; format: ADME
Cytochrome P450 2D6, sequence (P10635 whole entry): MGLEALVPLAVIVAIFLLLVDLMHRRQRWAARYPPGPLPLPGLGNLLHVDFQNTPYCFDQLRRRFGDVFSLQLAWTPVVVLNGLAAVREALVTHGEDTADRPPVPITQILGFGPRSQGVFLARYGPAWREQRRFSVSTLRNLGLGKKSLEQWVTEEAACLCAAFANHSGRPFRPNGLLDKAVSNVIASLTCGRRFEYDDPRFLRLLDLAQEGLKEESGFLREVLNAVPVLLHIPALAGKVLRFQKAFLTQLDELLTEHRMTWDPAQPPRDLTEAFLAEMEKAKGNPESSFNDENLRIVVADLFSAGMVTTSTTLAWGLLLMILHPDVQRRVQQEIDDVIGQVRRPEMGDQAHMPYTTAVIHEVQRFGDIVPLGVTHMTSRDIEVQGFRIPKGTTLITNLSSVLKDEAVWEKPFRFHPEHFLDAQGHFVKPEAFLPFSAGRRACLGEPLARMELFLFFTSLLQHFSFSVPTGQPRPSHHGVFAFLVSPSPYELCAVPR

T2 sequence (P08684 whole entry): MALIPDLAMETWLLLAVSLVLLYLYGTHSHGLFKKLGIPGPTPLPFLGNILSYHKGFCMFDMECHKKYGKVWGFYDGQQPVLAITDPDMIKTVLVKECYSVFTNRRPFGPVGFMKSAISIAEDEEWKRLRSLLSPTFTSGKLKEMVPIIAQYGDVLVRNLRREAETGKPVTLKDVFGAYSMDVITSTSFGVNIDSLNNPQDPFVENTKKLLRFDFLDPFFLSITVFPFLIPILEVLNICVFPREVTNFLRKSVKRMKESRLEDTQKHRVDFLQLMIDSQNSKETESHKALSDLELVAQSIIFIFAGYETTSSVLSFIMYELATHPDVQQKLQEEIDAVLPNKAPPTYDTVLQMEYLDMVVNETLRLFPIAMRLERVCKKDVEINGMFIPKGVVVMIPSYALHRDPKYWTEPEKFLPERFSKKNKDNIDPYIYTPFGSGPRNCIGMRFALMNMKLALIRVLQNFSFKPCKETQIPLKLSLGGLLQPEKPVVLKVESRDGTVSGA
Sodium-dependent dopamine transporter, sequence (Q01959 whole entry): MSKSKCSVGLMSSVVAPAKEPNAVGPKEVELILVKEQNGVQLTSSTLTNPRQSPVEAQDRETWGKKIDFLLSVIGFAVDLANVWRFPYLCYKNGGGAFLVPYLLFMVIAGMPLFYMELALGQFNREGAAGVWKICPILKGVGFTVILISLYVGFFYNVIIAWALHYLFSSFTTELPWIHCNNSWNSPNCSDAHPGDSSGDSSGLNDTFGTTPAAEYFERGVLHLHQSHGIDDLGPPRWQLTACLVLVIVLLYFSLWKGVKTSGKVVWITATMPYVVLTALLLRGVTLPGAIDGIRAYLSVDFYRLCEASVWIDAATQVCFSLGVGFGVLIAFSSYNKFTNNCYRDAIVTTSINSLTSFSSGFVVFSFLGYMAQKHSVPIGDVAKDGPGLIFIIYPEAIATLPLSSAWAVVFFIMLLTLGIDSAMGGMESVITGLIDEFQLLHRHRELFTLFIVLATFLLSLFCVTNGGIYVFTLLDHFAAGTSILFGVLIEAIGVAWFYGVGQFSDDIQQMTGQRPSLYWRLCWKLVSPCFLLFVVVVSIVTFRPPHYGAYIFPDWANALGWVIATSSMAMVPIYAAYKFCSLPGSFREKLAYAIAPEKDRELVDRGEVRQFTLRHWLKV
Cytochrome P450 2C19, sequence (P33261 whole entry): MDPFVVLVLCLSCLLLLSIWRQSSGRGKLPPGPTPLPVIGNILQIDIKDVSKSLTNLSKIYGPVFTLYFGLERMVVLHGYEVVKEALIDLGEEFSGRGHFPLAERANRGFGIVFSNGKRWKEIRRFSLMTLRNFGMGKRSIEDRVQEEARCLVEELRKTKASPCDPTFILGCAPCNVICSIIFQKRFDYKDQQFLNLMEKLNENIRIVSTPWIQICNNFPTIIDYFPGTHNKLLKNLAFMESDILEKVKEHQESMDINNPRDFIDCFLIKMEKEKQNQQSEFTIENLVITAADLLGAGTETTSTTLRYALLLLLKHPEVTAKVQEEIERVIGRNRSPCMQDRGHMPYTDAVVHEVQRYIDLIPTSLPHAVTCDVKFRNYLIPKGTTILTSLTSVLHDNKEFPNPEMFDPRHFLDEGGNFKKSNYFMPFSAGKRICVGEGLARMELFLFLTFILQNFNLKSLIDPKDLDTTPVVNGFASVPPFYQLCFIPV
Sodium-dependent serotonin transporter, sequence (P31645 whole entry): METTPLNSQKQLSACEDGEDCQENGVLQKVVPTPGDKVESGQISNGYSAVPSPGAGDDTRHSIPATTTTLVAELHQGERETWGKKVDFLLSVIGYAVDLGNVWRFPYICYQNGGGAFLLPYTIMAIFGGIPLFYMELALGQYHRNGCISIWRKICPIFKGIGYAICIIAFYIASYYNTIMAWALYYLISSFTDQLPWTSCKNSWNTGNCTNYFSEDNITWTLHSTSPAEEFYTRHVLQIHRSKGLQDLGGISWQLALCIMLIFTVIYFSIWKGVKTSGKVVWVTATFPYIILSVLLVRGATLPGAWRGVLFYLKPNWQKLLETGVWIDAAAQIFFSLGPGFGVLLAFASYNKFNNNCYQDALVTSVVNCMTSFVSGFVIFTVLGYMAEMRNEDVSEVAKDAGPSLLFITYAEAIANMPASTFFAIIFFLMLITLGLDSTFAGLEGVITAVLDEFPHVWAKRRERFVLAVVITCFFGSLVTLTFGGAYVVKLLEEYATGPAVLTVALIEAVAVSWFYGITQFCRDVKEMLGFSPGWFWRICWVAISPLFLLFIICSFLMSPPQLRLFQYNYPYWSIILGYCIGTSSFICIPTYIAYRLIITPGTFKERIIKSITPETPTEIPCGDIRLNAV
Transporter, sequence (Q63380 whole entry): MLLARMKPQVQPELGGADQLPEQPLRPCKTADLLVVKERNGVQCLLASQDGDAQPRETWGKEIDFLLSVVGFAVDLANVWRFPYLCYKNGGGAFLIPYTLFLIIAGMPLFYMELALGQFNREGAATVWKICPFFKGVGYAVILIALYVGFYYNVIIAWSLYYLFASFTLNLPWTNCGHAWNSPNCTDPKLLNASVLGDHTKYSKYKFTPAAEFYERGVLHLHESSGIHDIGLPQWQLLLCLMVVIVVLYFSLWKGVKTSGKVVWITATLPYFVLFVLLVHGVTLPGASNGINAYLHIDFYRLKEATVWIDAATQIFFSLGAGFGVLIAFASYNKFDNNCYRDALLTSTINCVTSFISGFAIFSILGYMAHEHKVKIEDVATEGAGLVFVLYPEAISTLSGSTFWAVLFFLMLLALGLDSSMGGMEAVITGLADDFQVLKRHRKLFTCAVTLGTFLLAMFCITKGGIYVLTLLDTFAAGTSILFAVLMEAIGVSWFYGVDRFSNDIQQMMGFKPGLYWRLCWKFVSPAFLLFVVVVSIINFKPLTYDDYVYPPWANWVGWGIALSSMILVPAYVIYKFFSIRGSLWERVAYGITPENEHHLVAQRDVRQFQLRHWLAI
Cytochrome P450 2C9, sequence (P11712 whole entry): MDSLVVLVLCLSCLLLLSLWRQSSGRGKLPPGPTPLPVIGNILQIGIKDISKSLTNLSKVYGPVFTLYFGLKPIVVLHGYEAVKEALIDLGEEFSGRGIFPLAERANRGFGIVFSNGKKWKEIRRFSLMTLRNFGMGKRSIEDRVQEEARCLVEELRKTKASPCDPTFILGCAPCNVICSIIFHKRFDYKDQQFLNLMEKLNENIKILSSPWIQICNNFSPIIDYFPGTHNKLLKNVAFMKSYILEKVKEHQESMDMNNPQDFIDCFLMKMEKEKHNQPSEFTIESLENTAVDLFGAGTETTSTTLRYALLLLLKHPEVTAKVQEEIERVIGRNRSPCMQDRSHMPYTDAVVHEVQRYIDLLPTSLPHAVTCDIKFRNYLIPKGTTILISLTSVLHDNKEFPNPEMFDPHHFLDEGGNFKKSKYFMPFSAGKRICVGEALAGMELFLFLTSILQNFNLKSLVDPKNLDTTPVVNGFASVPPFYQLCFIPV
Voltage-gated inwardly rectifying potassium channel KCNH2, sequence (Q12809 whole entry): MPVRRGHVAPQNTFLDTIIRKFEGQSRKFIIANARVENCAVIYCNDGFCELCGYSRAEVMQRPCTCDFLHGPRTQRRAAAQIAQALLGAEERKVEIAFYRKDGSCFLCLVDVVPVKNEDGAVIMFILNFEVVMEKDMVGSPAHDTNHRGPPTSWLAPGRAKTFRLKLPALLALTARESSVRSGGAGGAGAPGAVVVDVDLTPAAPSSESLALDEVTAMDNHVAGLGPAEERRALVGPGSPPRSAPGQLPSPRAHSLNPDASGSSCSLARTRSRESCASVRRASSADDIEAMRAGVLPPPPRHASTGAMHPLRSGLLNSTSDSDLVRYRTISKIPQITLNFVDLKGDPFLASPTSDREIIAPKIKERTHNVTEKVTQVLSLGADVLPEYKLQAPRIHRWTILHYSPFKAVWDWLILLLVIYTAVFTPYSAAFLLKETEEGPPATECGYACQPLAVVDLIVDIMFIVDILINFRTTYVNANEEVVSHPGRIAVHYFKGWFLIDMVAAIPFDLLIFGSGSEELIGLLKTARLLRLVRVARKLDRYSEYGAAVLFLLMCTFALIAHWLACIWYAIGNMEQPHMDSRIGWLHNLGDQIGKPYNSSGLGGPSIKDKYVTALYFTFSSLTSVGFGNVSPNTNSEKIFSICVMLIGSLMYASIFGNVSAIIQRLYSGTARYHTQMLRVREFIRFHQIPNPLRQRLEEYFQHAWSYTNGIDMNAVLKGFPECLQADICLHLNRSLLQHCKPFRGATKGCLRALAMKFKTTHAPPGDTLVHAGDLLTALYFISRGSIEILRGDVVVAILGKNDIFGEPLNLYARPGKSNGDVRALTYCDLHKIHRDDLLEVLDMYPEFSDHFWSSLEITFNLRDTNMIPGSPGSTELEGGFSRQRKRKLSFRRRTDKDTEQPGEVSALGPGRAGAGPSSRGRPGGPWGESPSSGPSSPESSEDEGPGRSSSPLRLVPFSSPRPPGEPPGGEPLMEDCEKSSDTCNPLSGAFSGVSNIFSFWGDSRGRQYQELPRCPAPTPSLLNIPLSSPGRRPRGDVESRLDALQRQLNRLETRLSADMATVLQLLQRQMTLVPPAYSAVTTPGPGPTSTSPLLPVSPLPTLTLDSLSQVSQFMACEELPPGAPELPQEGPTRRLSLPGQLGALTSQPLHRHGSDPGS

Ki [2]: 4.3 µM | Ki [5]: 0.224 µM | pKa [6]: 9.5 | IC50 (Cytochrome P450 3A4 [7]): 22 µM | Ki (Transporter): 0.0039 µM | Papp A→B at 10 µM [8]: 16 ×10⁻⁶ cm/s | inhibition [9]: > 50% | Ki [10]: 0.006 µM | Papp B→A at 10 µM (MDR1 (P-gp) [11]): 57 ×10⁻⁶ cm/s | Ki [12]: 2.29 µM | efflux ratio at 10 µM (MDR1 (P-gp) [13]): 5.2 | IC50 (Cytochrome P450 3A4 [14]): 31.2 µM | Papp A→B at 10 µM (MDR1 (P-gp) [15]): 11 ×10⁻⁶ cm/s | Ki [16]: 3.7 µM | Papp B→A at 10 µM [19]: 33 ×10⁻⁶ cm/s | IC50 (Cytochrome P450 1A2): > 30 µM | IC50 (Cytochrome P450 2C19): > 30 µM | microsomal CLint [21]: < 7 µL/min/mg | Ki [22]: 1.8 µM | inhibition [23]: > 50% | IC50 (Cytochrome P450 3A4 [24]): 12.2 µM | IC50 (Cytochrome P450 2C9): > 30 µM | IC50 (Cytochrome P450 2D6): 15.1 µM
SMILES: O=C(c1ccccc1C(F)(F)F)N(CC1CCC1)[C@H]1CCNC1
IC50 [1]: > 26 µM | Activity (Rattus norvegicus [3]): inactive | IC50 [4]: > 20 µM | inhibition at 10 µM (hERG (KCNH2)): 48% | Activity (Rattus norvegicus [17]): 52% | Activity (Rattus norvegicus [18]): inactive | Activity (Rattus norvegicus [20]): 200%
